# Results taken from US9718869B2, “Peptide-based compounds and uses thereof to treat beta-amyloid accumulation” (MANUS PHARMACEUTICALS (CANADA) LTD., priority 2012, dated 2017).
# Values joined by “and” are separate entries in the source; they are usually repeats but may differ in a detail not shown here. Equal values may be shown once. “Also recorded” adds a separate entry of the source. Read-outs that look alike come from different tables or passages of the source. No end group written: not given here.
# Key:
# bulbectomized mice = assay: Morris water maze spatial memory test, bulbectomized mice immunized with (FR-3-NP-1)2-Lys-OH / (R-2-FR-3-NP-1)2-Lys-OH in IFA (Example 3); format: in vivo, NMRI mice; conditions: four immunizations with IFA; for Number of visits to the training/rescue compartment (in words) / Time spent in the training/rescue compartment (in words): BE mice
# Protocol: Immunization was carried out in four stages.
# Each group consisted of 5-8 mice.
# bulbectomized (BE) mice [1] = assay: Morris water maze spatial memory test, bulbectomized mice immunized with KLH conjugates of NP-1 fragments (Example 2); format: in vivo, NMRI mice; conditions: KLH conjugate, 1st immunization CFA, 2nd IFA, 0.1 mg/mouse
# Protocol: NMRI mice (see Example 1) were immunized with peptides conjugated to snail keyhole limpet hemocyanin (KLH).
# In this study, a scheme with a double introduction of peptides into mice with complete Freund's adjuvant (CFA) for the first immunization and incomplete Freund's adjuvant (IFA) for the second immunization was used. Between the first and second immunization a bulbectomy was performed. After the second immunization, one month after bulbectomy, the mice's state of spatial memory was tested, after which the mice were put down and their blood and cerebrospinal fluid were collected to determine their level of antipeptide antibodies.
# To prepare the peptide conjugates with KLH, 0.75 mg of peptide was dissolved in 0.65 ml of KLH in PBS with a protein concentration of 5.8 mg/ml and stirred for an hour while adding 38 μl of 2.5% glutaraldehyde solution in PBS. The resulting solution was stirred for 15 hours and dialyzed against PBS for 20 hours.
# Tables 12 and 13 present the results of statistical analysis of spatial memory test data using univariate analysis (one-way ANOVA), to judge the ability of the animal to distinguish sections of the Morris water maze.
# bulbectomized (BE) mice [2] = assay: Morris water maze spatial memory test, bulbectomized mice immunized with NP-1 / R-1-NP-1 in IFA (Example 1); format: in vivo, NMRI mice; conditions: for Ratio of sector visits to total number of all visits, sector 1 / Ratio of sector visits to total number of all visits, sector 2 / Ratio of sector visits to total number of all visits, sector 3 (training sector with platform) / Ratio of sector visits to total number of all visits, sector 4 / Time spent in sector 1 / Time spent in sector 2 / Time spent in sector 3 (training sector with platform) / Time spent in sector 4: BE (bulbectomized) mice, 4 immunizations with IFA, 1 min memory test; for Effect of immunization on spatial memory of BE mice (in words): immunization with IFA, no complete Freund's adjuvant
# Protocol: The immunization was carried out in four stages.
# This method enables separate evaluation of learning and memory.
# β-amyloid (1-40) [3] = assay: ELISA of β-amyloid (1-40) in brain (cortex+hippocampus) of bulbectomized immunized mice; format: in vivo, NMRI mice; conditions: for Average level of βA / Individual levels of βA: BE (bulbectomized) mice, cortex+hippocampus; for Individual levels of βA: one value per mouse
# Protocol: (§1) To collect brain structures to determine the biochemical level of β-amyloid, mice were decapitated and the brain was removed in the cold. The cortex was removed by scalpel from both hemispheres, the hippocampus was bilaterally removed, the probes were placed in labeled plastic test tubes that were frozen at −80° C. and stored in a freezer until the biochemical study of the level of β-amyloid.
# (§2) Biochemical identification of β-amyloid (1-40) by enzyme immunoassay was performed as follows: samples of the cortex and hippocampus, which were stored at −80° C. after collection, were weighed, thawed at room temperature, and then homogenized in a solution of 2% CHAPS 20 mM Tris-HCl (pH 7.7) in the presence of protease inhibitors (10 μg/ml leupeptin, 10 μg/ml aprotinin and 10 μg/ml AEBSF) in a volume calculated for each sample (4 ml of solution per 1 g of tissue), using a RT-12 tissue microgrinder in a glass beaker for the homogenization using a ground-glass pestle. Homogenates were centrifuged at 21,000 g at 4° C. for 30 min. Selected supernatants were stored at −80° C. and thawed immediately prior to the immunoassay analysis.
# Another part of the samples were homogenized in 5 M guanidine-HCl solution of 50 mM Tris-HCl (pH 8.0), in a volume calculated for each sample (400 mcl of solution per 50 mg of tissue). The samples were stirred for 3-4 hours at room temperature, then diluted in BSAT-DPBS (5% BSA, 0.03% Tween-20) buffer, centrifuged at 21,000 g at 4° C. for 30 min, after which the supernatants were collected.
# The immunosorbent assay was performed using the instructions on the ELISA for the determination of β-amyloid (1-40) (Aβ40) mouse (ELISA kit mouse Aβ40, Invitrogen).
# After testing the memory of all groups of animals, brain perfusion was carried out in the cold under deep anaesthesia, and individual samples of brain tissue (cortex+hippocampus) were collected, which were stored in a freezer at a temperature of −80° C. until biochemical studies.
# sham operated (SO) mice = conditions: mouse, in vivo
# Protocol: Experiments were performed on NMRI mice weighing 20-30 g. Initiation of Alzheimer's type neurodegenerative process was caused by the removal of the animal's olfactory bulb (bulbectomy). The operation was performed under sterile conditions under nembutal anesthesia (40 mg/kg). For local anaesthesia during scalping, a subcutaneous injection of 0.5% solution of novocaine was used. […] A group of animals to serve as control was sham-operated (SO); these animals were subjected to the same procedure but without removal of the olfactory bulbs. After surgery all animals were injected with “Bitsillin 5” antibiotic into the muscles of the hind paw at a dose of 6000 units for the prevention of infection. Upon completion of behavioral experiments, morphological studies of animal brains were conducted to ensure complete removal of olfactory bulbs.
# The state of spatial memory was assessed after mice had developed spatial skills in the Morris water maze, which combines training in the formation of active avoidance and the ability to navigate in space. This method enables separate evaluation of learning and memory.
# The experimental chamber was a plastic pool of dimensions 100×60×30 cm, filled with water at a temperature of 23 degrees Celsius. […] The water was clouded with milk so that animals could not visually detect the rescue platform.
# All mice were pre-tested for the ability to swim and absence of an original sector preference in the water maze. The goal of the education was to have mice in one minute find the underwater platform and remember its location. Training was conducted in four sessions every day for five days, and the latency period for finding the platform was recorded for every session. 24 hours after completion of training, the level of the animal's spatial memory in the absence of a rescue platform was tested for one minute. Two indicators were used in analyzing the results: the number of visits to each sector of the maze and time spent in each sector.
# Two-factor analysis (general ANOVA) was used for statistical analysis of behavioral data. Post-hoc analysis was performed using the criterion of LSD (least significant difference). The reliability of the results was also evaluated using two-tailed Student's t-test.
# β-amyloid (1-40) [4] = conditions: mouse, in vivo
# Protocol: as §1, §2
# Another part of the samples were homogenized in 5 M guanidine-HCl solution of 50 mM Tris-HCl (pH 8.0), in a volume calculated for each sample (400 mcl of solution per 50 mg of tissue). […]
# [5] = tested on: animals with experimentally induced AD; conditions: cited from earlier work
substance,measurement,setting,value
(cyclo(Ala-Glu)(Trp-Ser-Glu-Arg-Phe-Tyr-Glu-Cys-Cys-Lys-Glu))2-Lys-OH ({cyclo(Ala-Glu)}-WSERFYECCKEK-OH; cysteine pairing not given here; also: dimer: two chains joined on Lys-OH) [(R-2-FR-3-NP-1)2-Lys-OH],Number of visits to the training/rescue compartment (in words),bulbectomized mice,preferred the second and third compartments
same,Time spent in the training/rescue compartment (in words),bulbectomized mice,selected the third compartment with statistical significance
EWDLVGIPGKRSERFY [FR-1-NP-1],"Ratio of sector visits to total number of all visits, sector 1",bulbectomized (BE) mice [1],22.17 ± 2.63 percentage
same,"Ratio of sector visits to total number of all visits, sector 2",bulbectomized (BE) mice [1],30.17 ± 1.49 percentage
same,"Ratio of sector visits to total number of all visits, sector 3 (training sector with platform)",bulbectomized (BE) mice [1],30.83 ± 2.32 percentage
same,"Ratio of sector visits to total number of all visits, sector 4",bulbectomized (BE) mice [1],18.33 ± 1.74 percentage
same,Time spent in sector 1,bulbectomized (BE) mice [1],15.83 ± 2.88 s
same,Time spent in sector 2,bulbectomized (BE) mice [1],17.0 ± 2.21 s
same,Time spent in sector 3 (training sector with platform),bulbectomized (BE) mice [1],18.33 ± 2.04 s
same,Time spent in sector 4,bulbectomized (BE) mice [1],8.83 ± 0.7 s
"EWDLVGIPGKRSERFYECCKE (cysteine pairing not given here) [NP-1, 2372355, reference compound]","Ratio of sector visits to total number of all visits, sector 1",bulbectomized (BE) mice [2],26.6 ± 1.54 percentage
same,"Ratio of sector visits to total number of all visits, sector 2",bulbectomized (BE) mice [2],27.8 ± 2.06 percentage
same,"Ratio of sector visits to total number of all visits, sector 3 (training sector with platform)",bulbectomized (BE) mice [2],24.2 ± 0.49 percentage
same,"Ratio of sector visits to total number of all visits, sector 4",bulbectomized (BE) mice [2],21.2 ± 1.6 percentage
same,Time spent in sector 1,bulbectomized (BE) mice [2],17 ± 0.84 s
same,Time spent in sector 2,bulbectomized (BE) mice [2],15.2 ± 1.69 s
same,Time spent in sector 3 (training sector with platform),bulbectomized (BE) mice [2],16 ± 11.14 s
same,Time spent in sector 4,bulbectomized (BE) mice [2],11.8 ± 1.91 s
same,Effect of immunization on spatial memory of BE mice (in words),bulbectomized (BE) mice [2],not capable of recalling the training sector; also recorded: did not improve their memory; also recorded: did not show protective activity; also recorded: did not exhibit memory protection
same,Change of βA level versus non-immunized BE mice (in words),β-amyloid (1-40) [3],significant reduction of β-amyloid
same,Average level of βA,β-amyloid (1-40) [3],2.44 ± 0.38 ng/g tissue
same,Individual levels of βA,β-amyloid (1-40) [3],3.039 ng/g tissue and 2.316 ng/g tissue and 3.324 ng/g tissue and 1.115 ng/g tissue and 2.408 ng/g tissue
same,"Ratio of sector visits to total number of all visits, sector 1",sham operated (SO) mice,14.5 ± 1.89 percentage
same,"Ratio of sector visits to total number of all visits, sector 2",sham operated (SO) mice,27.5 ± 2.1 percentage
same,"Ratio of sector visits to total number of all visits, sector 3 (training sector with platform)",sham operated (SO) mice,40.75 ± 3.15 percentage
same,"Ratio of sector visits to total number of all visits, sector 4",sham operated (SO) mice,18 ± 2.08 percentage
same,Time spent in sector 1,sham operated (SO) mice,10.5 ± 2.25 s
same,Time spent in sector 2,sham operated (SO) mice,13 ± 1.68 s
same,Time spent in sector 3 (training sector with platform),sham operated (SO) mice,27.5 ± 1.5 s
same,Time spent in sector 4,sham operated (SO) mice,9 ± 1.58 s
same,Average level of βA,β-amyloid (1-40) [4],3.22 ± 0.38 ng/g tissue
same,Brain levels of βA (in words),[5]; animals with experimentally induced AD,prevented an increase in brain levels of βA
same,Antibodies produced by immunization (in words),[5]; in vivo,produced antibodies capable of binding to the type α7 AChRs
same,Spatial memory in healthy animals (in words),[5]; in vivo,did not lead to deterioration of spatial memory
IPGKRSERFY [FR-2-NP-1],"Ratio of sector visits to total number of all visits, sector 1",bulbectomized (BE) mice [1],17.17 ± 2.32 percentage
same,"Ratio of sector visits to total number of all visits, sector 2",bulbectomized (BE) mice [1],34.5 ± 2.05 percentage
same,"Ratio of sector visits to total number of all visits, sector 3 (training sector with platform)",bulbectomized (BE) mice [1],35.51 ± 2.64 percentage
same,"Ratio of sector visits to total number of all visits, sector 4",bulbectomized (BE) mice [1],13.67 ± 2.53 percentage
same,Time spent in sector 1,bulbectomized (BE) mice [1],12.33 ± 2.38 s
same,Time spent in sector 2,bulbectomized (BE) mice [1],18.33 ± 1.82 s
same,Time spent in sector 3 (training sector with platform),bulbectomized (BE) mice [1],20.1 ± 1.86 s
same,Time spent in sector 4,bulbectomized (BE) mice [1],8.33 ± 1.98 s
SERFYECCKE (cysteine pairing not given here) [FR-3-NP-1],"Ratio of sector visits to total number of all visits, sector 1",bulbectomized (BE) mice [1],20.75 ± 1.25 percentage
same,"Ratio of sector visits to total number of all visits, sector 2",bulbectomized (BE) mice [1],26.25 ± 2.95 percentage
same,"Ratio of sector visits to total number of all visits, sector 3 (training sector with platform)",bulbectomized (BE) mice [1],32.0 ± 4.3 percentage
same,"Ratio of sector visits to total number of all visits, sector 4",bulbectomized (BE) mice [1],21.0 ± 2.38 percentage
same,Time spent in sector 1,bulbectomized (BE) mice [1],13.0 ± 1.91 s
same,Time spent in sector 2,bulbectomized (BE) mice [1],13.75 ± 2.1 s
same,Time spent in sector 3 (training sector with platform),bulbectomized (BE) mice [1],25.25 ± 3.47 s
same,Time spent in sector 4,bulbectomized (BE) mice [1],8.0 ± 1.58 s
Ser-Glu-Arg-Phe-Tyr-Glu-Cys-Cys-Lys-Glu-Lys(Ser-Glu-Arg-Phe-Tyr-Glu-Cys-Cys-Lys-Glu)-OH [(FR-3-NP-1)2-Lys-OH],Number of visits to the training/rescue compartment (in words),bulbectomized mice,much worse
same,Time spent in the training/rescue compartment (in words),bulbectomized mice,much worse
same,Effect of immunization on spatial memory of BE mice (in words),bulbectomized mice,only a slight tendency towards improvement of spatial memory
cyclo(Ala-Glu)-Trp-(Glu-Trp-Asp-Leu-Val-Gly-Ile-Pro-Gly-Lys-Arg-Ser-Glu-Arg-Phe-Tyr-Cys-Cys-Lys-Glu) ({cyclo(Ala-Glu)}-WEWDLVGIPGKRSERFYCCKE; cysteine pairing not given here) [R-1-NP-1],"Ratio of sector visits to total number of all visits, sector 1",bulbectomized (BE) mice [2],20.67 ± 2.2 percentage
same,"Ratio of sector visits to total number of all visits, sector 2",bulbectomized (BE) mice [2],27 ± 1.46 percentage
same,"Ratio of sector visits to total number of all visits, sector 3 (training sector with platform)",bulbectomized (BE) mice [2],34.33 ± 2.44 percentage
same,"Ratio of sector visits to total number of all visits, sector 4",bulbectomized (BE) mice [2],18.17 ± 1.49 percentage
same,Time spent in sector 1,bulbectomized (BE) mice [2],12.17 ± 2.06 s
same,Time spent in sector 2,bulbectomized (BE) mice [2],13.67 ± 1.5 s
same,Time spent in sector 3 (training sector with platform),bulbectomized (BE) mice [2],25.33 ± 4.02 s
same,Time spent in sector 4,bulbectomized (BE) mice [2],8.83 ± 1.85 s
same,Effect of immunization on spatial memory of BE mice (in words),bulbectomized (BE) mice [2],showed improvement of spatial memory; also recorded: resulted in improved memory; also recorded: protects the spatial memory; also recorded: led to memory protection
same,Change of βA level versus non-immunized BE mice (in words),β-amyloid (1-40) [3],significant reduction of β-amyloid
same,Average level of βA,β-amyloid (1-40) [3],2.985 ± 0.2 ng/g tissue
same,Individual levels of βA,β-amyloid (1-40) [3],2.525 ng/g tissue and 3.704 ng/g tissue and 3.705 ng/g tissue and 2.398 ng/g tissue and 2.91 ng/g tissue and 2.77 ng/g tissue and 2.882 ng/g tissue
same,"Ratio of sector visits to total number of all visits, sector 1",sham operated (SO) mice,12.4 ± 2.7 percentage
same,"Ratio of sector visits to total number of all visits, sector 2",sham operated (SO) mice,26 ± 2.86 percentage
same,"Ratio of sector visits to total number of all visits, sector 3 (training sector with platform)",sham operated (SO) mice,40 ± 2.19 percentage
same,"Ratio of sector visits to total number of all visits, sector 4",sham operated (SO) mice,22.2 ± 3.18 percentage
same,Time spent in sector 1,sham operated (SO) mice,7.2 ± 1.83 s
same,Time spent in sector 2,sham operated (SO) mice,14 ± 2.43 s
same,Time spent in sector 3 (training sector with platform),sham operated (SO) mice,30.41 ± 2.42 s
same,Time spent in sector 4,sham operated (SO) mice,8.4 ± 1.96 s
same,Average level of βA,β-amyloid (1-40) [4],2.78 ± 0.21 ng/g tissue
